Measured values reported in patent publication EP0470323A2, “New salts of the nicotinic acid with aminobenzylic compounds and their pharmaceutical use” (BROMLEY LIMITED, priority 1990, dated 1992).

Legend:
[1] = test system: Thyphirium salmonella strains (TA 98, TA 100, TA 1535, and TA 1538); type: cell-based
Source text: (§1) The compound according to the Example 1 has been tested, in order to check and see its mutagenic effects.

[2] = test system: pl strain of Schiosaccharomyces Pombe; assay: Frequency of mutations in yeast, with and without microsomal fraction; type: cell-based; details: tested dosages, with and without microsmial fraction
Source text: as §1

[3] = test system: five strains of Typhumurium Salmonella; assay: Mutagenic action of urines of intragastrically treated rats on Salmonella; type: cell-based; details: urines of rats treated intragastrically with two doses, with metabolic activation, beta-glucoronidase absent
[4] = test system: hypertrigliceridaemia from olive oil in the rats; assay: Hypertriglyceridaemia from olive oil in the rat (serum lactescence); type: in vivo
Protocol: The method described by Zucker I.H. (Sci. Anal. Lab. 24, 114, 1972) has been followed.
Male rats have been used, whose body weight was 150-200 g. The animals were without eating with water "ad libitum" and all this beginning 24 hours before the experiment. The hyperlipaemia was induced by the administration of olive oil by mouth; its composition as to the fat acids was as follows: palmitic acid 10% palmitoleic acid 1%, stearic acid 3%, […] and linoleic acid 7% (all percentages are by weight). The quantity of olive oil administered, by means of a gastric probe, was 10 ml/kg. The treatments were made by finely pounding with a china mortar and by suspending in the olive oil the examined compounds. […] The positive control animals received only olive oil; moreover, there was also a group of negative control animals who received plain water in quantities of 10 ml/kg. Every three hours a group of rats (10) was killed in a light ethereal anaesthesia, in order to be able to appreciate the percentage of triglycerides in the blood. The animals were bled by cutting them the carotids and the blood was collected in plastic test-tubes, capacity 10 ml each, and was centrifuged for ten minutes at 3500 rpm. The evaluated parameter was the lactescence of the serum, which is directly proportional to the contents of kilomicrons and therefore of triglycerides (Zucker, see above the mention). The serum has been diluted 1:5 in a physiologic solution and was read at the spectrophotometer at […] against white (physiologic solution). From the individual optical Density (D.O.) data one could calculate for each group the average of the standard error. The statistical analysis was performed by means of the t of Dunnett.

[5] = test system: Hypercholesterolaemia caused by Trit WR1339 in the mouses; assay: Hypercholesterolaemia of the mouse caused by Triton WR 1339; type: in vivo; details: for Tot.Cholesterol M ± E.S. / Tot.Lipids M ± E.S.: 20 hours after Triton WR 1339 i.p.; for Tot.Cholesterol % vs contr. / Tot.Lipids % vs contr.: reduction
Protocol: The method described by Garattini S. (Arzneim,Forsch 9, 206; 1959) with some modifications has been followed.
The mouses used have been males of 22 to 28 grams body weight, on an empty stomach but with water "ad libitum" since 12 hours. The hyperlipidaemia was induced by means of an intraperitoneum administration of […] of Triton WR 1339, with dosage 300 mg/kg in a physiological solution. The subject products were administered at the same time in clear plain water, always in a volume of […] by means of a gastric probe. The animals were sacrified after 20 hours, by cutting them the carotids. The blood was collected in some plastic test-tubes, and was centrifuged at 3500 rpm for ten minutes. Thereafter the total cholesterol (Sornay R and colleagues, Arzeneim Forsch, 26,885 1976) and the total lipids (Chonhelmer R and colleagues, Biological Chemistry 106, 745, 1934) were determined.

[6] = test system: skin temperature of the mouse's paw; assay: Peripheral vessel-dilating activity in the mouse (skin temperature of hind paws); type: in vivo; details: for Temperature (°C) of the hind paws (n=10): intravenous; for Temperature (°C) of the hind paws: oral
Protocol: The method of Richter W. (Acta Pharm. Toxicol. 21, 91; 1974) was used; it consists in determining, at fixed time intervals after the treatment, the skin temperature of the mouse's paw, by keeping the animals in rooms at a constant temperature of 21°C.
Some groups of ten male mouses each have been used; the weight of each animal was 30 g approximately.
The compound according to the Example 1 has been tested "per os" at three basic levels of the doses (0,125 - 0,25 - 0,5 mM/kg) and by intravenous injection at two dose levels (0,015 and 0,03 mM/kg), in comparison with one sole dose of Papaverin and chlorhydrated Buflomedil (0,5 mM/kg "per os" and 0,03m M/kg intravenous). The observation of the skin temperature at the mouse's paw was made before the treatment, 30, 60 and 120 minutes after the "per os" treatment, […] (A-Hl Ellab) connected with an Ellab electric recorder. Of each animal the temperature of both hind paws has been measured, and the values obtained have been averaged .

COc1cc(OC)c(C(=O)CCCN2CCCC2)c(OC)c1 [Example 1, 4-(1 pyrrholydinyl)-1-(2,4,6 trimethoxypheniyl)-1-nicotinized butanone]
mutagenic activity [1]: did not show any mutagenic activity | frequency of mutations [2]: did not increase | mutagenic action [3]: any mutagenic action did not result | Serum opt.density at the indicated times (M ± E.S.) ([4]; dose 1 mM/kg/os, 3 h): 247 ± 15,3 | Serum opt.density at the indicated times (M ± E.S.) ([4]; dose 1 mM/kg/os, 6 h): 1121 ± 51,6 | Serum opt.density at the indicated times (M ± E.S.) ([4]; dose 1 mM/kg/os, 9 h): 987 ± 36,7 | Serum opt.density at the indicated times (M ± E.S.) ([4]; dose 1 mM/kg/os, 12 h): 724 ± 28,4 | Serum opt.density at the indicated times (M ± E.S.) ([4]; dose 1 mM/kg/os, 15 h): 458 ± 21,3 | Serum opt.density at the indicated times (M ± E.S.) ([4]; dose 1 mM/kg/os, 18 h): 229 ± 22,6 | Serum opt.density at the indicated times (M ± E.S.) ([4]; dose 2 mM/kg/os, 3 h): 271 ± 15,9 | Serum opt.density at the indicated times (M ± E.S.) ([4]; dose 2 mM/kg/os, 6 h): 856 ± 44,2 | Serum opt.density at the indicated times (M ± E.S.) ([4]; dose 2 mM/kg/os, 9 h): 624 ± 27,4 | Serum opt.density at the indicated times (M ± E.S.) ([4]; dose 2 mM/kg/os, 12 h): 451 ± 26,2 | Serum opt.density at the indicated times (M ± E.S.) ([4]; dose 2 mM/kg/os, 15 h): 294 ± 26,2 | Serum opt.density at the indicated times (M ± E.S.) ([4]; dose 2 mM/kg/os, 18 h): 212 ± 28,3 | Serum opt.density at the indicated times (M ± E.S.) ([4]; dose 4 mM/kg/os, 3 h): 260 ± 17,1 | Serum opt.density at the indicated times (M ± E.S.) ([4]; dose 4 mM/kg/os, 6 h): 720 ± 43,8 | Serum opt.density at the indicated times (M ± E.S.) ([4]; dose 4 mM/kg/os, 9 h): 612 ± 21,2 | Serum opt.density at the indicated times (M ± E.S.) ([4]; dose 4 mM/kg/os, 12 h): 400 ± 28,3 | Serum opt.density at the indicated times (M ± E.S.) ([4]; dose 4 mM/kg/os, 15 h): 226 ± 25,6 | Serum opt.density at the indicated times (M ± E.S.) ([4]; dose 4 mM/kg/os, 18 h): 184 ± 16,2 | reduction in both parameters (total cholesterol and total lipids) ([5]; dosage of 2 mM/kg weight): 43% | reduction in both parameters (total cholesterol and total lipids) ([5]; dosage of 5 mM/kg weight): ~60% | Tot.Cholesterol M ± E.S. ([5]; dose 1 mM/kg per os): 221 ± 18 mg/100 ml | Tot.Lipids M ± E.S. ([5]; dose 1 mM/kg per os): 1721 ± 164 mg/100 ml | Tot.Cholesterol % vs contr. ([5]; dose 1 mM/kg per os): 38,3% | Tot.Lipids % vs contr. ([5]; dose 1 mM/kg per os): 29,3% | Tot.Cholesterol M ± E.S. ([5]; dose 2 mM/kg per os): 191 ± 15 mg/100 ml | Tot.Lipids M ± E.S. ([5]; dose 2 mM/kg per os): 1315 ± 115 mg/100 ml | Tot.Cholesterol % vs contr. ([5]; dose 2 mM/kg per os): 46,6% | Tot.Lipids % vs contr. ([5]; dose 2 mM/kg per os): 46,0% | Tot.Cholesterol M ± E.S. ([5]; dose 4 mM/kg per os): 133 ± 12 mg/100 ml | Tot.Lipids M ± E.S. ([5]; dose 4 mM/kg per os): 1008 ± 117 mg/100 ml | Tot.Cholesterol % vs contr. ([5]; dose 4 mM/kg per os): 62,8% | Tot.Lipids % vs contr. ([5]; dose 4 mM/kg per os): 58,6% | Temperature (°C) of the hind paws (n=10) ([6]; dose 0,015 mM/kg/iv, 0 minutes (before the treatment)): 24,3 ± 0,25 °C | Temperature (°C) of the hind paws (n=10) ([6]; dose 0,015 mM/kg/iv, 30 minutes from the treatment): 25,9 ± 0,18 °C | Temperature (°C) of the hind paws (n=10) ([6]; dose 0,015 mM/kg/iv, 60 minutes from the treatment): 25,8 ± 0,30 °C | Temperature (°C) of the hind paws (n=10) ([6]; dose 0,015 mM/kg/iv, 120 minutes from the treatment): 25,4 ± 0,22 °C | Temperature (°C) of the hind paws (n=10) ([6]; dose 0,030 mM/kg/iv, 0 minutes (before the treatment), listed as Compound according to the Ex.1): 24,2 ± 0,20 °C | Temperature (°C) of the hind paws (n=10) ([6]; dose 0,030 mM/kg/iv, 30 minutes from the treatment, listed as Compound according to the Ex.1): 26,7 ± 0,31 °C | Temperature (°C) of the hind paws (n=10) ([6]; dose 0,030 mM/kg/iv, 60 minutes from the treatment, listed as Compound according to the Ex.1): 26,5 ± 0,27 °C | Temperature (°C) of the hind paws (n=10) ([6]; dose 0,030 mM/kg/iv, 120 minutes from the treatment, listed as Compound according to the Ex.1): 26,3 ± 0,30 °C | Temperature (°C) of the hind paws ([6]; dose 0,125 mM/kg/os, 0 minutes (before the treatment)): 24,3 ± 0,24 °C | Temperature (°C) of the hind paws ([6]; dose 0,125 mM/kg/os, 30 minutes from the treatment): 24,7 ± 0,32 °C | Temperature (°C) of the hind paws ([6]; dose 0,125 mM/kg/os, 60 minutes from the treatment): 024,9 ± 0,30 °C | Temperature (°C) of the hind paws ([6]; dose 0,125 mM/kg/os, 120 minutes from the treatment): 25,2 ± 0,35 °C | Temperature (°C) of the hind paws ([6]; dose 0,250 mM/kg/os, 0 minutes (before the treatment)): 24,7 ± 0,20 °C | Temperature (°C) of the hind paws ([6]; dose 0,250 mM/kg/os, 30 minutes from the treatment): 25,2 ± 0,44 °C | Temperature (°C) of the hind paws ([6]; dose 0,250 mM/kg/os, 60 minutes from the treatment): 25,8 ± 0,32 °C | Temperature (°C) of the hind paws ([6]; dose 0,250 mM/kg/os, 120 minutes from the treatment): 25,5 ± 0,50 °C | Temperature (°C) of the hind paws ([6]; dose 0,500 mM/kg/os, 0 minutes (before the treatment), listed as Compound according to the Example 1): 24,6 ± 0,25 °C | Temperature (°C) of the hind paws ([6]; dose 0,500 mM/kg/os, 30 minutes from the treatment, listed as Compound according to the Example 1): 26,8 ± 0,30 °C | Temperature (°C) of the hind paws ([6]; dose 0,500 mM/kg/os, 60 minutes from the treatment, listed as Compound according to the Example 1): 27,5 ± 0,40 °C | Temperature (°C) of the hind paws ([6]; dose 0,500 mM/kg/os, 120 minutes from the treatment, listed as Compound according to the Example 1): 27,2 ± 0,45 °C
